Measured values taken from patent US12233081B2, “Hygromycin a compounds and methods of treating spirochete diseases” (priority 2018, dated 2025).
Where two headings read alike, the source gives them in different places.

Tests used:
gut microbiome [1] = assay: gut microbiome 16S rRNA sequencing of stool of infected, treated mice; conditions: for Enterococcaceae change in percent relative abundance: 100 mg/kg
gut microbiome [2] = conditions: mouse, in vivo, 100 mg/kg
[3] = IP 100 mg/kg every 12 hours for 5 days
[4] = oral 100 mg/kg every 12 hours for 5 days

## CC1(C)S[C@@H]2[C@H](NC(=O)[C@H](N)c3ccc(O)cc3)C(=O)N2[C@H]1C(=O)O [Amox, amoxicillin]
Gut microbiome [1]; [3]
  Brucellaceae change in percent relative abundance: 0.000%
  Francisellaceae change in percent relative abundance: 0.001%
Gut microbiome [1]; [4]
  Aerococcaceae change in percent relative abundance: 0.000%
  Anaerolineaceae change in percent relative abundance: 0.000%
  Anaeroplasmataceae change in percent relative abundance: −0.048%
  Anaplasmataceae change in percent relative abundance: 0.000%
  Aspergillaceae change in percent relative abundance: 0.000%
  Asteraceae change in percent relative abundance: 0.003%
  Bacillaceae change in percent relative abundance: 0.002%
  Bacillales change in percent relative abundance: −0.100%
  Bacteroidaceae change in percent relative abundance: −8.426%
  Bifidobacteriaceae change in percent relative abundance: −0.124%
  Brucellaceae change in percent relative abundance: 0.001%
  Camobacteriaceae change in percent relative abundance: −0.002%
  Chitinophagaceae change in percent relative abundance: 0.000%
  Christensenellaceae change in percent relative abundance: 0.000%
  Clostridiaceae change in percent relative abundance: −6.891%
  Clostridiales change in percent relative abundance: −0.099%
  Clostridiales family xi. incertae sedis change in percent relative abundance: −0.027%
  Clostridiales family xiii. incertae sedis change in percent relative abundance: −0.011%
  Coriobacteriaceae change in percent relative abundance: −0.019%
  Corynebacteriaceae change in percent relative abundance: 0.000%
  Cytophagaceae change in percent relative abundance: −0.001%
  Deferribacteraceae change in percent relative abundance: −0.085%
  Defluviitaleaceae change in percent relative abundance: −0.001%
  Desulfobacteraceae change in percent relative abundance: 0.000%
  Enterobacteriaceae change in percent relative abundance: −1.496%
  Erysipelotrichaceae change in percent relative abundance: −2.932%
  Eubacteriaceae change in percent relative abundance: 4.510%
  Fabaceae change in percent relative abundance: 0.001%
  Flavobacteriaceae change in percent relative abundance: 0.000%
  Francisellaceae change in percent relative abundance: −0.001%
  Fusobacteriaceae change in percent relative abundance: 0.000%
  Gammaproteobacteria change in percent relative abundance: −0.027%
  Gloeobacteraceae change in percent relative abundance: −0.013%
  Gracilibacteraceae change in percent relative abundance: −0.105%
  Halomonadaceae change in percent relative abundance: 0.001%
  Hylidae change in percent relative abundance: 0.002%
  Kopriimonadaceae change in percent relative abundance: 0.000%
  Lachnospiraceae change in percent relative abundance: −5.482%
  Lactobacillaceae change in percent relative abundance: −15.023%
  Leuconostocaceae change in percent relative abundance: 0.002%
  Methylobacteriaceae change in percent relative abundance: 0.000%
  Microbacteriaceae change in percent relative abundance: 0.000%
  Mucoraceae change in percent relative abundance: 0.002%
  Nostocaceae change in percent relative abundance: 0.001%
  Onagraceae change in percent relative abundance: 0.000%
  Oscillatoriales change in percent relative abundance: 0.069%
  Oscillospiraceae change in percent relative abundance: −0.005%
  Paenibacillaceae change in percent relative abundance: −0.001%
  Pasteurellaceae change in percent relative abundance: 0.000%
  Pelobacteraceae change in percent relative abundance: 0.000%
  Peptococcaceae change in percent relative abundance: −0.948%
  Peptoniphilaceae change in percent relative abundance: 0.000%
  Peptostreptococcaceae change in percent relative abundance: −0.187%
  Physalacriaceae change in percent relative abundance: 0.000%
  Poaceae change in percent relative abundance: 0.107%
  Polyangiaceae change in percent relative abundance: 0.000%
  Porphyromonadaceae change in percent relative abundance: −19.192%
  Prevotellaceae change in percent relative abundance: −0.240%
  Pseudomonadaceae change in percent relative abundance: 0.000%
  Rhizobiaceae change in percent relative abundance: 0.001%
  Rhodobacteraceae change in percent relative abundance: 0.000%
  Rikenellaceae change in percent relative abundance: −6.166%
  Ruminococcaceae change in percent relative abundance: −1.440%
  Sphingomonadaceae change in percent relative abundance: 0.000%
  Spirochaetaceae change in percent relative abundance: −0.056%
  Spiroplasmataceae change in percent relative abundance: −0.004%
  Staphylococcaceae change in percent relative abundance: 0.000%
  Streptococcaceae change in percent relative abundance: −2.376%
  Thermoanaerobacteraceae change in percent relative abundance: −0.028%
  Veillonellaceae change in percent relative abundance: 0.001%
  Verrucomicrobiaceae change in percent relative abundance: −0.009%
  Xanthomonadaceae change in percent relative abundance: 0.002%
  all other commensal taxa such as Bacteroidaceae and Lactobacillaceae: depleted
  mice with Enterococcaceae blooms: 4/5
  Enterococcaceae change in percent relative abundance: 75.807%
Gut microbiome [1]; oral 100 mg/kg every 12 hours for 5 days, listed as amoxicillin
  Enterococcaceae change in percent relative abundance: 75.8%
Gut microbiome [2]; C3H, ip, 5 days
  Camobacteriaceae change in percent relative abundance: 0.000%
  Chitinophagaceae change in percent relative abundance: 0.000%
  Christensenellaceae change in percent relative abundance: 0.000%
  Clostridiaceae change in percent relative abundance: 0.211%
  Clostridiales change in percent relative abundance: −0.037%
  Clostridiales family xi. incertae sedis change in percent relative abundance: −0.010%
  Clostridiales family xiii. incertae sedis change in percent relative abundance: −0.007%
  Coriobacteriaceae change in percent relative abundance: 0.099%
Gut microbiome [2]; ip
  Acholeplasmataceae change in percent relative abundance: 0.005%
  Aerococcaceae change in percent relative abundance: 0.000%
  Anaerolineaceae change in percent relative abundance: 0.000%
  Anaeroplasmataceae change in percent relative abundance: −0.132%
  Anaplasmataceae change in percent relative abundance: 0.000%
  Aspergillaceae change in percent relative abundance: 0.000%
  Asteraceae change in percent relative abundance: 0.000%
  Bacillaceae change in percent relative abundance: −0.011%
  Bacillales change in percent relative abundance: −0.031%
  Bacteroidaceae change in percent relative abundance: 0.684%
  Bifidobacteriaceae change in percent relative abundance: 0.000%
  Candidatus saccharibacteria change in percent relative abundance: −0.018%
  Corynebacteriaceae change in percent relative abundance: 0.000%
  Cytophagaceae change in percent relative abundance: 0.001%
  Deferribacteraceae change in percent relative abundance: 0.080%
  Defluviitaleaceae change in percent relative abundance: 0.000%
  Desulfobacteraceae change in percent relative abundance: 0.000%
  Enterobacteriaceae change in percent relative abundance: −0.243%
  Enterococcaceae change in percent relative abundance: 0.052%
  Erysipelotrichaceae change in percent relative abundance: −0.193%
  Eubacteriaceae change in percent relative abundance: −1.475%
  Fabaceae change in percent relative abundance: 0.000%
  Flavobacteriaceae change in percent relative abundance: 0.000%
  Fusobacteriaceae change in percent relative abundance: 0.000%
  Gammaproteobacteria change in percent relative abundance: 0.003%
  Gloeobacteraceae change in percent relative abundance: 0.055%
  Gracilibacteraceae change in percent relative abundance: −0.026%
  Halomonadaceae change in percent relative abundance: 0.000%
  Hylidae change in percent relative abundance: 0.000%
  Kopriimonadaceae change in percent relative abundance: 0.000%
  Lachnospiraceae change in percent relative abundance: −1.425%
  Lactobacillaceae change in percent relative abundance: 1.726%
  Leuconostocaceae change in percent relative abundance: 0.000%
  Methylobacteriaceae change in percent relative abundance: 0.000%
  Microbacteriaceae change in percent relative abundance: 0.000%
  Mucoraceae change in percent relative abundance: 0.000%
  Nostocaceae change in percent relative abundance: 0.000%
  Onagraceae change in percent relative abundance: 0.000%
  Oscillatoriales change in percent relative abundance: 0.000%
  Oscillospiraceae change in percent relative abundance: 0.001%
  Paenibacillaceae change in percent relative abundance: −0.001%
  Pasteurellaceae change in percent relative abundance: 0.000%
  Pelobacteraceae change in percent relative abundance: 0.000%
  Peptococcaceae change in percent relative abundance: −0.325%
  Peptoniphilaceae change in percent relative abundance: 0.000%
  Peptostreptococcaceae change in percent relative abundance: −0.131%
  Physalacriaceae change in percent relative abundance: 0.000%
  Poaceae change in percent relative abundance: 0.024%
  Polyangiaceae change in percent relative abundance: 0.000%
  Porphyromonadaceae change in percent relative abundance: 10.471%
  Prevotellaceae change in percent relative abundance: 0.080%
  Pseudomonadaceae change in percent relative abundance: 0.000%
  Rhizobiaceae change in percent relative abundance: 0.000%
  Rhodobacteraceae change in percent relative abundance: 0.000%
  Rikenellaceae change in percent relative abundance: −3.443%
  Ruminococcaceae change in percent relative abundance: −0.093%
  Sphingomonadaceae change in percent relative abundance: 0.000%
  Spirochaetaceae change in percent relative abundance: −0.032%
  Spiroplasmataceae change in percent relative abundance: −0.059%
  Staphylococcaceae change in percent relative abundance: −0.001%
  Streptococcaceae change in percent relative abundance: −7.086%
  Thermoanaerobacteraceae change in percent relative abundance: −0.008%
  Veillonellaceae change in percent relative abundance: 0.000%
  Verrucomicrobiaceae change in percent relative abundance: 1.296%
  Xanthomonadaceae change in percent relative abundance: 0.001%
Gut microbiome [2]; po
  Acholeplasmataceae change in percent relative abundance: 0.095%
  Candidatus saccharibacteria change in percent relative abundance: −0.022%
